Source: ChEMBL document CHEMBL2346660, “Synthesis and biological evaluation of trans 6-methoxy-1,1-dimethyl-2-phenyl-3-aryl-2,3-dihydro-1H-inden-4-yloxyalkylamine derivatives against drug susceptible, non-replicating M. tuberculosis H37Rv and clinical multidrug resistant strains” (Bioorg Med Chem Lett, 2013)
Converted amounts (≈) assume the structure as drawn.

Assays:
[1] = test system: Mycobacterium tuberculosis; experiment: Antimicrobial activity against rifampicin-resistant and INH-resistant Mycobacterium tuberculosis 1678/05 by agar dilution method and BACTEC radiometric method; assay type: functional
[2] = test system: Mycobacterium tuberculosis; experiment: Antimicrobial activity against rifampicin-resistant and INH-resistant Mycobacterium tuberculosis 2643 by agar dilution method and BACTEC radiometric method; assay type: functional

| Structure (SMILES) | MIC [1] | MIC [2] |
| --- | --- | --- |
| COc1cc(OCCN(C(C)C)C(C)C)c2c(c1)C(C)(C)[C@H](c1ccccc1)[C@H]2c1ccccc1 (relative stereo) | 6.25 µg/mL (≈ 13.3 µM) | 6.25 µg/mL (≈ 13.3 µM) |
| COc1cc(OCCN2CCCCCC2)c2c(c1)C(C)(C)[C@H](c1ccccc1)[C@H]2c1c(OC)ccc2ccccc12 (relative stereo) | 3.12 µg/mL (≈ 5.68 µM) | 3.12 µg/mL (≈ 5.68 µM) |
